# Measurements as given in article PMC5095062, “The novel choline kinase inhibitor ICL-CCIC-0019 reprograms cellular metabolism and inhibits cancer cell growth” (Oncotarget, 2016).
# Legend:
# HCT116 cells [1] = assay: Mitochondrial respiration (Seahorse XF24); assay type: cell-based, human; conditions: 10 μM
# Protocol: Extracellular acidification and oxygen consumption rates (ECAR and OCR) were measured in a XF24 extracellular flux analyzer (Seahorse XF24 Extra Cellular Flux Analyzer, North Billerica, MA, USA). Basic XF assay medium was prepared as previously described supplemented with glucose, and the pH adjusted to 7.4 at 37°C. Indicated final concentrations of compounds were obtained by injecting appropriate amounts of compounds dissolved in DMSO or water and diluted in XF assay medium into ports. […] Indicated data points were obtained after 3 min mixing and 2 min wait, followed by 3 min of data collection. Data were normalized to the basal values.
# HCT116 cells [2] = assay: TMRE mitochondrial membrane potential assay; assay type: cell-based, human; conditions: 10 μM, 24 h
# Protocol: HCT116 cells were cultured as above with indicated inhibitors and subject to the tetramethylrhodamine ethyl ester dye method (TMRE) membrane potential assay according to the manufacturers instruction (Abcam ab113852) prior to FACS analysis.
substance,measurement,setting,value
MN58B [reference compound],mitochondrial respiration immediately after adding inhibitor (acute effect),HCT116 cells [1],decreased mitochondrial respiration
same,TMRE-detectable mitochondrial membrane potential,HCT116 cells [2],decreased
